pIC50: −log10 of the molar value.
Tests used:
THP1.1 = assay: Payload cell potency and lethality CTGlo 72 h, THP1.1; format: cell-based; conditions: for CTGlo-AT S GMean LD50 (nM) 72 h THP1.1: payload; for GI50: read-out: CTGlo-AT S GMean GI50 (nM) Ad2.2 HELA.2
N87 cells = assay: Cell viability CellTiter-Glo, N87; format: cell-based, human; conditions: unconjugated payload of the ADC
Description: (§2) HCC1954 (American Type Culture Collection (ATCC)) breast ductal carcinoma cells were plated at 2000 cells/well in flat bottom 96-well tissue culture plates (Corning) in a total volume of 90 μL tissue culture medium supplemented with 10% fetal bovine serum (ThermoFisher Scientific). Cells were treated with a 3-fold serial dilution of compound from 200 nM to 0.03 nM. Each concentration was tested in triplicate. At the time of treatment, a plate of untreated cells was evaluated using CellTiter-Glo®2.0 Luminescent Cell Viability Assay according to the manufacturer's recommendations (Promega; #G9241). CellTiter-Glo® 2.0 reagent was added to the medium, incubated, and assayed on an EnVision Multilabel Reader (PerkinElmer). Values represent time zero (TO). […] Percentage growth inhibition was calculated as: [(T144-T0)/(C-TO)]×100 for concentrations for which T144>/=TO or [(T144-T0)/T0]×100 for concentrations for which T144<TO. The dose response curve plots were generated using Prism 7 (Graphpad) and fit using nonlinear regression analysis and the log(inhibitor) versus response-variable slope (four parameters).
(§3) HCC1954 (ATCC), 2000 cells/well), N87 (ATCC, 4000 cells/well), SKBR3 (ATCC, 3000 cells/well), and MCF7 (ATCC, 1500 cells/well) cell lines were used.

HCC1954 cells = assay: Cell viability CellTiter-Glo, HCC1954; format: cell-based; conditions: unconjugated payload of the ADC
Description: as §2, §3

Ad2.2 pre-mRNA splicing = assay: In vitro splicing (IVS) RT-qPCR, Ad2.2 pre-mRNA, HeLa nuclear extract; format: biochemical; conditions: payload of the ADC; read-out: qPCR-IVS-AT S GMean IC50 (nM) Ad2.2 HELA.2
Description: To evaluate payload activity in a cell-free system, an in vitro splicing assay was performed. The payloads were incubated with nuclear extracts and pre-mRNA substrate minigenes.
HeLa nuclear extract preparation: HeLa S3 cell pellets were resuspended in hypotonic buffer (10 mM HEPES pH 7.9, 1.5 mM MgCl2, 10 mM KCl, 0.2 mM PMSF, 0.5 mM DTT) and the suspension was brought up to a total of 5 packed cell volume (PCV). After centrifugation, the supernatant was discarded, and the cells were brought up to 3 PCV with hypotonic buffer and incubated on ice for 10 min. Cells were lysed using a dounce homogenizer and then centrifuged. […]. The nuclei were gently mixed for 30 min before centrifuging. The supernatant (nuclear extract) was then dialyzed into storage buffer (20 mM HEPES pH 7.9, 100 mM KCl, 0.2 mM EDTA, 20% glycerol, 0.2 mM PMSF, 0.5 mM DTT). Protein concentration was determined using NanoDrop 8000 UV-Vis spectrophotometer (ThermoFisher Scientific).
IVS: All Ad2-derived sequences (Pellizzoni et al. (1998) Cell 95(5):615-24) were cloned into pcDNA3.1(+) vector (Promega) using 5′ EcoRI and 3′ Xbal restriction sites. The plasmids were linearized using Xbal and used as DNA templates in in vitro transcription reactions. The FtzΔi intron-less plasmid (Luo and Reed (1999) 96(26):14937-42) was linearized using EcoRI. All RNAs were in vitro transcribed and then purified using MEGAScript T7 (Invitrogen) and MegaClear (Invitrogen) kits, respectively. For splicing reactions using Ad2 variant pre-mRNAs, 1 μL reactions were prepared using 8 μg nuclear extracts prepared from HeLa S3, 2 ng pre-mRNA, 0.2 ng FTZΔi, and varying concentrations of compounds or DMSO. After a 15 min pre-incubation at 30° C., 1 μL splicing activation buffer (0.5 mM ATP, 20 mM creatine phosphate, 1.6 mM MgCl2) was added, and the reactions were incubated for 90 min at 30° C. The reactions were then quenched with 13 μL DMSO, and 25 nL was used for RT-qPCR. RT-qPCR reactions were prepared using TaqMan RNA-to-CT 1-step kit (Life Technologies), RNA from splicing reactions, Ad2 (forward: […]; reverse: […]; probe: […]) and Ftz (forward: […]; reverse: […]; probe: […]) mRNA primer-probe sets. Prism 7 (Graphpad) was used for non-linear regression curve fitting of the formed spliced product and normalized to the control (DMSO) sample. […] In the presence of payload, a decrease in the amount of spliced product was observed.

Caco-2 cells = assay: Caco-2 permeability of ADC payload; format: in vitro ADME; conditions: for Perm. Mean Caco-2 A-B Perm (10e-6 cm/s) / Perm. Mean Caco-2 B-A Perm (10e-6 cm/s): corresponding free payload of the ADC
Description: (§1) Integrity of cell monolayer was confirmed by TEER (transepithelial electrical resistance) and Lucifer yellow. Payloads were spiked in duplicate at 10 μM, separately, on both sides of the cell monolayer. Permeability rates from the apical to basolateral (A-B) direction and the basolateral to apical (B-A) direction were determined by sampling aliquots from both chambers immediately after treatment (t=0) and following incubation for 2 hours. Samples were protein precipitated with organic solvent containing internal standard and analyzed by LC-MS/MS (SCIEX; API 5500). The area ratio responses of payload/internal standard over time in both directions were used to generate permeability (cm/see) values. Efflux ratio was calculated by dividing B-A/A-B. Control compounds for low and high permeability and efflux behaved as expected.

[1] = Caco-2 permeability of ADC payload; format: in vitro ADME; conditions: human, Caco-2, payload; for efflux ratio at 2 h, 10 μM: B-A/A-B, read-out: Eflux ratio
Description: as §1

Ad2.1 pre-mRNA splicing = assay: In vitro splicing (IVS) RT-qPCR, Ad2.1 pre-mRNA, HeLa nuclear extract; format: biochemical; conditions: payload of the ADC; read-out: qPCR-IVS-AT S Gmean IC50 (nm) Ad2.1 HELA.2
Description: HeLa nuclear extract preparation: HeLa S3 cell pellets were resuspended in hypotonic buffer (10 mM HEPES pH 7.9, 1.5 mM MgCl2, 10 mM KCl, 0.2 mM PMSF, 0.5 mM DTT) and the suspension was brought up to a total of 5 packed cell volume (PCV). After centrifugation, the supernatant was discarded, and the cells were brought up to 3 PCV with hypotonic buffer and incubated on ice for 10 min. Cells were lysed using a dounce homogenizer and then centrifuged. […] The nuclei were gently mixed for 30 min before centrifuging. The supernatant (nuclear extract) was then dialyzed into storage buffer (20 mM HEPES pH 7.9, 100 mM KCl, 0.2 mM EDTA, 20% glycerol, 0.2 mM PMSF, 0.5 mM DTT). Protein concentration was determined using NanoDrop 8000 UV-Vis spectrophotometer (ThermoFisher Scientific).
IVS: All Ad2-derived sequences (Pellizzoni et al. (1998) Cell 95(5):615-24) were cloned into pcDNA3.1(+) vector (Promega) using 5′ EcoRI and 3′ Xbal restriction sites. The plasmids were linearized using Xbal and used as DNA templates in in vitro transcription reactions. The FtzΔi intron-less plasmid (Luo and Reed (1999) 96(26):14937-42) was linearized using EcoRI. All RNAs were in vitro transcribed and then purified using MEGAScript T7 (Invitrogen) and MegaClear (Invitrogen) kits, respectively. For splicing reactions using Ad2 variant pre-mRNAs, 1 μL reactions were prepared using 8 μg nuclear extracts prepared from HeLa S3, 2 ng pre-mRNA, 0.2 ng FTZΔi, and varying concentrations of compounds or DMSO. After a 15 min pre-incubation at 30° C., 1 μL splicing activation buffer (0.5 mM ATP, 20 mM creatine phosphate, 1.6 mM MgCl2) was added, and the reactions were incubated for 90 min at 30° C. The reactions were then quenched with 13 μL DMSO, and 25 nL was used for RT-qPCR. RT-qPCR reactions were prepared using TaqMan RNA-to-CT 1-step kit (Life Technologies), RNA from splicing reactions, Ad2 (forward: [sequence]; reverse: [sequence]; probe: [sequence]) and Ftz (forward: [sequence]; reverse: [sequence]; probe: [sequence]) mRNA primer-probe sets. Prism 7 (Graphpad) was used for non-linear regression curve fitting of the formed spliced product and normalized to the control (DMSO) sample.

MCF7 cells = assay: Cell viability CellTiter-Glo, HER2-negative MCF7; conditions: unconjugated payload of the ADC
Description: HCC1954 (American Type Culture Collection (ATCC)) breast ductal carcinoma cells were plated at 2000 cells/well in flat bottom 96-well tissue culture plates (Corning) in a total volume of 90 μL tissue culture medium supplemented with 10% fetal bovine serum (ThermoFisher Scientific). Cells were treated with a 3-fold serial dilution of compound from 200 nM to 0.03 nM. Each concentration was tested in triplicate. At the time of treatment, a plate of untreated cells was evaluated using CellTiter-Glo®2.0 Luminescent Cell Viability Assay according to the manufacturer's recommendations (Promega; #G9241). CellTiter-Glo® 2.0 reagent was added to the medium, incubated, and assayed on an EnVision Multilabel Reader (PerkinElmer). Values represent time zero (TO). […] Using the luminescence value at time zero (TO), DMSO control growth (C), and test growth in the presence of compound (T144), the percentage growth was calculated at each of the compound concentrations levels. Percentage growth inhibition was calculated as: [(T144-T0)/(C-TO)]×100 for concentrations for which T144>/=TO or [(T144-T0)/T0]×100 for concentrations for which T144<TO. The dose response curve plots were generated using Prism 7 (Graphpad) and fit using nonlinear regression analysis and the log(inhibitor) versus response-variable slope (four parameters).
as §3

PC3 cells = assay: Cell viability, EPHA2-expressing PC3; format: cell-based; conditions: for Payload LD50: corresponding payload alone; for GI50: Homo sapiens, PC-3, corresponding payload alone
Description: as §2

MOLP8 cells = assay: Cell viability, CD138-expressing MOLP8; format: cell-based; conditions: unconjugated payload of the ADC
Description: as §2

SMILES	CTGlo-AT S GMean LD50 (nM) 72 h THP1.1 (THP1.1) [nM]	IC50 (Ad2.2 pre-mRNA splicing) [nM]	efflux ratio at 2 h, 10 μM [1]	pIC50 (Ad2.1 pre-mRNA splicing)	Payload LD50 (PC3 cells) [nM]	other results
CC[C@H](O)[C@@H](C)[C@H]1O[C@@H]1C[C@@](C)(O)/C=C/C=C(\C)[C@H]1OC(=O)C[C@H](O)CC[C@@](C)(OC(=O)N2CCNCC2)[C@@H](OC(C)=O)/C=C/[C@@H]1C [D8, (2S,3S,6S,7R,10R,E)-6-acetoxy-10-hydroxy-2-((R,2E,4E)-6-hydroxy-7-((2R,3R)-3-((2R,3S)-3-hydroxypentan-2-yl)oxiran-2-yl)-6-methylhepta-2,4-dien-2-yl)-3,7-dimethyl-12-oxooxacyclododec-4-en-7-yl piperazine-1-carboxylate]	38.969	9.03	15.9	7.94	177.783	Payload LD50 (N87 cells): >200 nM; Payload LD50 (HCC1954 cells): 11.175 nM; Payload Rmin (%) (HCC1954 cells): −80.463%; Perm. Mean Caco-2 A-B Perm (10e-6 cm/s) (Caco-2 cells): 0.128 10e-6 cm/s; Perm. Mean Caco-2 B-A Perm (10e-6 cm/s) (Caco-2 cells): 2.027 10e-6 cm/s; Payload LD50 (MCF7 cells): 181.521 nM; Payload Rmin (%) (MCF7 cells): −62.957%
CC[C@H](O)[C@@H](C)[C@H]1O[C@@H]1C[C@H](C)/C=C/C=C(\C)[C@H]1OC(=O)C[C@H](O)CC[C@@](C)(OC(C)=O)[C@@H](OC(=O)N2CCNCC2)/C=C/[C@@H]1C [D9]	3.56	18.1	14	7.69		
CC[C@H](O)[C@@H](C)[C@H]1O[C@@H]1C[C@@](C)(O)/C=C/C=C(\C)[C@H]1OC(=O)C[C@H](O)CC[C@@](C)(O)[C@@H](OC(=O)N2CCN(C3CCCCCC3)CC2)/C=C/[C@@H]1C [D11, E7107]	8.086	9.36		7.98		GI50 (THP1.1): 1.35 nM
CC[C@H](O)[C@@H](C)[C@H]1O[C@@H]1C[C@@](C)(O)/C=C/C=C(\C)[C@H]1OC(=O)C[C@H](O)CC[C@@](C)(O)[C@@H](OC(=O)N2CCNCC2)/C=C/[C@@H]1C [D12, (2S,3S,6S,7R,10R,E)-7,10-dihydroxy-2-((R,2E,4E)-6-hydroxy-7-((2R,3R)-3-((2R,3S)-3-hydroxypentan-2-yl)oxiran-2-yl)-6-methylhepta-2,4-dien-2-yl)-3,7-dimethyl-12-oxooxacyclododec-4-en-6-yl piperazine-1-carboxylate]						Perm. Mean Caco-2 A-B Perm (10e-6 cm/s) (Caco-2 cells): 0.17 10e-6 cm/s; Perm. Mean Caco-2 B-A Perm (10e-6 cm/s) (Caco-2 cells): 0.23 10e-6 cm/s; efflux ratio (in words) (Caco-2 cells; payload): low efflux ratio
CC[C@H](O)[C@@H](C)[C@H]1O[C@@H]1C[C@H](C)/C=C/C=C(\C)[C@H]1OC(=O)C[C@H](O)CC[C@@](C)(OC(=O)N2CCNCC2)[C@@H](OC(C)=O)/C=C/[C@@H]1C [D13]	3.358	8.82	19.1	7.95		
CC(=O)N1CCC(n2nnc3c(F)cc(/C=C(\C)[C@H]4OC(=O)C[C@H](O)CC[C@H](C)[C@@H](OC(=O)N5CCNCC5)/C=C/[C@@H]4C)cc32)CC1 [D14]	25.594	8.59	202	8.00	>400	LD50 (nM) (payload) (MOLP8 cells): 8.5 nM; Rmin (%) (payload) (MOLP8 cells): −61%; GI50 (THP1.1): 3.58 nM; Payload LD50 (N87 cells): >200 nM; Payload LD50 (MCF7 cells): 77.198 nM; Payload Rmin (%) (MCF7 cells): −61.886%
CC[C@H](O)[C@@H](C)[C@H]1O[C@@H]1C[C@H](C)/C=C/C=C(\C)[C@H]1OC(=O)C[C@H](O)CC[C@@](C)(OC)[C@@H](OC(=O)N2CCNCC2)/C=C/[C@@H]1C [D18, (2S,3S,6S,7R,10R,E)-10-hydroxy-2-((S,2E,4E)-7-((2R,3R)-3-((2R,3S)-3-hydroxypentan-2-yl)oxiran-2-yl)-6-methylhepta-2,4-dien-2-yl)-7-methoxy-3,7-dimethyl-12-oxooxacyclododec-4-en-6-yl piperazine-1-carboxylate]	4.355	12.7		7.90	>400	Payload LD50 (N87 cells): 2.993 nM; Payload LD50 (HCC1954 cells): 0.787 nM; Payload Rmin (%) (HCC1954 cells): −90.055%; Payload LD50 (MCF7 cells): 7.697 nM; Payload Rmin (%) (MCF7 cells): −68.226%; GI50 (PC3 cells): 1.41 nM
CC[C@H](O)[C@@H](C)[C@H]1O[C@@H]1C[C@@](C)(O)/C=C/C=C(\C)[C@H]1OC(=O)C[C@H](O)CC[C@@](C)(OC)[C@@H](OC(=O)N(C)CCNC)/C=C/[C@@H]1C [D20, (2S,3S,6S,7R,10R,E)-10-hydroxy-2-((R,2E,4E)-6-hydroxy-7-((2R,3R)-3-((2R,3S)-3-hydroxypentan-2-yl)oxiran-2-yl)-6-methylhepta-2,4-dien-2-yl)-7-methoxy-3,7-dimethyl-12-oxooxacyclododec-4-en-6-yl methyl(2-(methylamino)ethyl)carbamate]	113.557	8.75		7.96		
CC[C@H](O)[C@@H](C)[C@H]1O[C@@H]1C[C@@](C)(O)/C=C/C=C(\C)[C@H]1OC(=O)C[C@H](O)CC[C@@](C)(OC)[C@@H](OC(=O)N2CCNC(CCC(=O)O)C2)/C=C/[C@@H]1C (stereo partly drawn) [D22, 3-(4-((((2S,3S,6S,7R,10R,E)-10-hydroxy-2-((R,2E,4E)-6-hydroxy-7-((2R,3R)-3-((2R,3S)-3-hydroxypentan-2-yl)oxiran-2-yl)-6-methylhepta-2,4-dien-2-yl)-7-methoxy-3,7-dimethyl-12-oxooxacyclododec-4-en-6-yl)oxy)carbonyl)piperazin-2-yl)propanoic acid]	1594.636	49.1		7.18		Papp B→A at 2 h, 10 μM ([1]; 10 μM, 2 hours, basolateral to apical, read-out: Permeability Mean Caco-2 B-A Perm (10e-Gcm/s)): 0.18 ×10⁻⁶ cm/s
C/C(=C\c1cc(F)cc(N2CCN(C(=O)Cn3cccn3)CC2)c1)[C@H]1OC(=O)C[C@H](O)CC[C@H](C)[C@@H](OC(=O)N2CCN(C)CC2)/C=C/[C@@H]1C [D26]	28.483	14.3	2.58	7.72		
C/C(=C\c1cc(F)cc(N2CCN(S(=O)(=O)c3cnn(C)c3)CC2)c1)[C@H]1OC(=O)C[C@H](O)CC[C@H](C)[C@@H](OC(=O)N2CCNCC2)/C=C/[C@@H]1C [D28]					>400	GI50 (PC3 cells): > 400 nM
C/C(=C\c1cc(F)cc(N2CCN(CC(=O)O)CC2)c1)[C@H]1OC(=O)C[C@H](O)CC[C@H](C)[C@@H](OC(=O)N2CCNCC2)/C=C/[C@@H]1C [D33, 2-(4-(3-fluoro-5-((E)-2-((2S,3S,6R,7S,10R,E)-10-hydroxy-3,7-dimethyl-12-oxo-6-((piperazine-1-carbonyl)oxy)oxacyclododec-4-en-2-yl)prop-1-en-1-yl)phenyl)piperazin-1-yl)acetic acid]	5202.992	72.4		7.48		GI50 (THP1.1): 196 nM
